Data from patent US8431563B2 (priority 2010, dated 2013).
Where a name gives a salt, the structure may show the parent alone.

Columns and labels:
[1] = target: T1, GKRP (Glucokinase Regulatory Protein) with human His-hepatic GK (Homo sapiens, UniProt Q14397); assay: GKRP NADPH Coupled Assay; type: biochemical; conditions: indirect measure of glucose-6-phosphate, fluorescence, 1 μM GKRP (10×), 20 nM GK (5×)
T1 sequence (Q14397 1-625): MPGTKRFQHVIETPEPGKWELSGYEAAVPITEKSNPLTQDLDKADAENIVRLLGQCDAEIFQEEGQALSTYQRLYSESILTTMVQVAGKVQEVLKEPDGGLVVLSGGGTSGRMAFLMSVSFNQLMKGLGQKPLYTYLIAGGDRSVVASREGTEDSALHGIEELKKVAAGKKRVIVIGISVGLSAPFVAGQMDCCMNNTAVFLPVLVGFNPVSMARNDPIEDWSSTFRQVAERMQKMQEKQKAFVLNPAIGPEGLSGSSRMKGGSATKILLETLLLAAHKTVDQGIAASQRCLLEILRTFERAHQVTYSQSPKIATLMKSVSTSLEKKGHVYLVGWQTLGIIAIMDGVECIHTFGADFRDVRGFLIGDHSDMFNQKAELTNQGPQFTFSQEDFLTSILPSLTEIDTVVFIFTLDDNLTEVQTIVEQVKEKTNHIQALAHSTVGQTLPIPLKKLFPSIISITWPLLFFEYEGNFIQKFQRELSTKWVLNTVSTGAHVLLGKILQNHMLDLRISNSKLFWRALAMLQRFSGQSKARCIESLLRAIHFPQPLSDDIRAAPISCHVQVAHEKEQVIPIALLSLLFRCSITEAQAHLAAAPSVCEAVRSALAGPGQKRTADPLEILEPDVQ
Experimental: (§1) This assay is used to directly measure the formation of ^13C-glucose-6-phosphate from ^13C-glucose by liquid chromatography-mass spectrometry (LC MS/MS). Begin by preparing the following solutions: Compound Buffer (CB): 50 mM Tris, pH 7.5/4 mM MgCl2/6% DMSO/fresh 10 mM DTT from 1M frozen stock. Enzyme Buffer (EB): 50 mM Tris, pH 7.5/4 mM MgCl2/6% DMSO/fresh 0.1% BSA/fresh 0.01% Brij-35 (10% BSA and 1% Brij-35 stock). GK (Glucokinase) Working Stock (5×): Dilute human His-hepatic GK to 30 nM in EB buffer. […] After 30 minutes add 10 μl of GK Working Stock (5×). Re-seal the plate and incubate for another 30 minutes at room temperature while mixing. After the second 30 minutes, stop the reaction by the addition of 50 μl of 100% acetonitrile, seal, and mix for 5-10 minutes. Run 10 μl of this sample through the LC MS/MS (API 3200, Applied Biosystems Inc., Carlsbad, Calif.).
This assay is used as an indirect measure of glucose-6-phosphate (G6P) formed from glucose due to the enzymatic activity of glucokinase. Assay format is the same as for GKRP LC MS/MS Biochemical Assay with the following exceptions. GK Working Stock (5×): Dilute human His-hepatic GK to 20 nM in EB buffer. Stop & Detection Reagent (2×): Dilute β-nicotinamide adenine dinucleotide phosphate sodium salt (β-NADP) (Aldrich-Sigma, St. Louis, Mo.) to 2 mM from 100 mM stock (stock in 10 mM Tris, pH 9.2) and dilute glucose-6-phosphate dehydrogenase (Aldrich-Sigma, St. Louis, Mo.) to 0.04 Unit/μl from 10 Unit/μl (stock in 10 mM Tris pH 7.5/0.05% Brij-35) in 0.2 M Tris, pH 9.2/8% DMSO. After the initial 30 minute incubation add 10 μl of 20 nM GK diluted in EB (5×). Re-seal the plate and incubate for another 1 hour at room temperature while mixing. After 1 hour remove the seal and add 50 μl of Stop & Detection Reagent and incubate for 5 minutes at room temperature while mixing.

[2] = target: T1, GKRP (Glucokinase Regulatory Protein) with human His-hepatic GK; assay: GKRP LC MS/MS Biochemical Assay; conditions: 13C-glucose-6-phosphate formation, 1 μM GKRP (10×), 30 nM GK (5×)
Experimental: GKRP LC MS/MS Biochemical Assay
as §1

[3] = read-out: GK-GKRP EC50 (NADPH-coupled)
[4] = read-out: GK-GKRP EC50 (LC MS/MS)

Row | SMILES | EC50 ([1]; GK-GKRP EC50 (NADPH-coupled)) | EC50 ([2]; GK-GKRP EC50 (LC MS/MS)) | EC50 [1, 3] | EC50 [2, 4]
1 | CC(O)(c1ccc(N2CCN(S(=O)(=O)c3cccs3)CC2CN2C[C@H]3C[C@@H]2CO3)cc1)C(F)(F)F (stereo partly drawn) [Example 50, 1,1,1-trifluoro-2-(4-(2-((1R,4R)-2-oxa-5-azabicyclo[2.2.1]hept-5-ylmethyl)-4-(2-thiophenylsulfonyl)-1-piperazinyl)phenyl)-2-propanol] | 670 nM | 880 nM | – | –
2 | C[C@H]1CN(S(=O)(=O)c2ccccc2)CCN1c1ccc(C(O)(C(F)(F)F)C(F)(F)F)cc1 [Example 12, 1,1,1,3,3,3-hexafluoro-2-(4-((2S)-2-methyl-4-(phenylsulfonyl)-1-piperazinyl)phenyl)-2-propanol] | 821 nM | 884 nM | – | –
3 | O=S(=O)(c1ccsc1)N1CCN(c2ccc(C(O)(C(F)(F)F)C(F)(F)F)cc2)CC1 [Example 3, 1,1,1,3,3,3-hexafluoro-2-(4-(4-(3-thiophenylsulfonyl)-1-piperazinyl)phenyl)-2-propanol] | 597 nM | 964 nM | – | –
4 | CC(O)(c1ccc(N2CCN(S(=O)(=O)c3ccccc3)CC2CC2CCOCC2)cc1)C(F)(F)F (stereo not shown) [Example 41, 1,1,1-trifluoro-2-(4-(4-(phenylsulfonyl)-2-(tetrahydro-2H-pyran-4-ylmethyl)-1-piperazinyl)phenyl)-2-propanol] | – | – | 785 nM | 572 nM
5 | O=S(=O)(c1cccs1)N1CCN(c2ccc(C(O)(C(F)(F)F)C(F)(F)F)cc2-c2ccc(O)cc2)CC1 [Example 74, 2′-(4-(2-thiophenylsulfonyl)-1-piperazinyl)-5′-(2,2,2-trifluoro-1-hydroxy-1-(trifluoromethyl)ethyl)-4-biphenylol] | 1470 nM | 1370 nM | – | –
6 | O=S(=O)(c1ccccc1)c1ccc(-c2ccc(C(O)(C(F)(F)F)C(F)(F)F)cn2)cc1 [Example 17, 1,1,1,3,3,3-hexafluoro-2-(6-(4-(phenylsulfonyl)phenyl)-3-pyridinyl)-2-propanol] | 1630 nM | 1710 nM | – | –
7 | O=S(=O)(c1ccccc1F)N1CCN(c2ccc(C(O)(C(F)(F)F)C(F)(F)F)cc2)CC1 [Example 6, 1,1,1,3,3,3-hexafluoro-2-(4-(4-((2-fluorophenyl)sulfonyl)-1-piperazinyl)phenyl)-2-propanol] | 1880 nM | 1520 nM | – | –
8 | CC(O)(c1ccc(N2CCN(S(=O)(=O)c3cccs3)CC2COCc2cccnc2)cc1)C(F)(F)F (mixture of isomers) [Example 59, 1,1,1-trifluoro-2-(4-(2-((3-pyridinylmethoxy)methyl)-4-(2-thiophenylsulfonyl)-1-piperazinyl)phenyl)-2-propanol] | 4930 nM | 4930 nM | – | –
9 | CC(O)(c1ccc(N2CCN(S(=O)(=O)c3cccs3)C[C@@H]2Cc2ccccc2)cc1)C(F)(F)F (single isomer, unassigned) [Example 65 Peak #2] | 166 nM | 240 nM | – | –
10 | CC(C)CC1CN(S(=O)(=O)c2cccs2)CCN1c1ccc(C(C)(O)C(F)(F)F)cc1 (mixture of isomers) [Example 57, 1,1,1-trifluoro-2-(4-(2-(2-methylpropyl)-4-(2-thiophenylsulfonyl)-1-piperazinyl)phenyl)-2-propanol] | – | – | 655 nM | 1020 nM
11 | C[C@H]1CN(S(=O)(=O)c2nccs2)CCN1c1ccc(C(C)(O)C(F)(F)F)cc1 (single isomer, unassigned) [Example 34 Peak #2] | 1940 nM | 1920 nM | – | –
12 | CC(O)(c1ccc(N2CCN(S(=O)(=O)c3cccs3)CC2CN2CC(O)C2)cc1)C(F)(F)F (mixture of isomers) [Example 53, 1-((4-(2-thiophenylsulfonyl)-1-(4-(2,2,2-trifluoro-1-hydroxy-1-methylethyl)phenyl)-2-piperazinyl)methyl)-3-azetidinol] | 2260 nM | 1790 nM | – | –
13 | Cc1ccc(S(=O)(=O)N2CCN(c3ccc(C(O)(C(F)(F)F)C(F)(F)F)cc3)CC2)s1 [Example 8, 1,1,1,3,3,3-hexafluoro-2-(4-(4-((5-methyl-2-thiophenyl)sulfonyl)-1-piperazinyl)phenyl)-2-propanol] | 4580 nM | 11400 nM | – | –
14 | CC(O)(c1ccc(N2CCN(S(=O)(=O)c3cccs3)CC2CN2CCOC(CO)C2)cc1)C(F)(F)F (mixture of isomers) [Example 52, 1,1,1-trifluoro-2-(4-(2-((2-(hydroxymethyl)-4-morpholinyl)methyl)-4-(2-thiophenylsulfonyl)-1-piperazinyl)phenyl)-2-propanol] | 1620 nM | 1170 nM | – | –
15 | CC(O)(c1ccc(N2CCN(S(=O)(=O)c3cccs3)CC2COCc2ccccc2)cc1)C(F)(F)F (mixture of isomers) [Example 44 Step 5, 2-(4-(2-((benzyloxy)methyl)-4-(2-thiophenylsulfonyl)-1-piperazinyl)phenyl)-1,1,1-trifluoro-2-propanol] | 420 nM | 617 nM | – | –
16 | CC(O)(c1ccc(-c2ccc(S(=O)(=O)c3ccccc3)c(Cl)c2)cc1)C(F)(F)F (racemic) [Example 19, 2-(3′-chloro-4′-(phenylsulfonyl)-4-biphenylyl)-1,1,1-trifluoro-2-propanol] | 3580 nM | 4230 nM | – | –
17 | O=S(=O)(c1ccccc1)N1CCN(c2ccc(C(O)(C(F)(F)F)C(F)(F)F)cn2)CC1 [Example 22, 1,1,1,3,3,3-hexafluoro-2-(6-(4-(phenylsulfonyl)-1-piperazinyl)-3-pyridinyl)-2-propanol] | 2730 nM | 2080 nM | – | –
18 | Cc1ccccc1S(=O)(=O)N1CCN(c2ccc(C(O)(C(F)(F)F)C(F)(F)F)cc2)CC1 [Example 4, 1,1,1,3,3,3-hexafluoro-2-(4-(4-((2-methylphenyl)sulfonyl)-1-piperazinyl)phenyl)-2-propanol] | 1270 nM | 1710 nM | – | –
19 | CC[C@H]1CN(S(=O)(=O)c2cccs2)CCN1c1ccc(C(O)(C(F)(F)F)C(F)(F)F)cc1 [Example 63, 2-(4-((2S)-2-ethyl-4-(2-thiophenylsulfonyl)-1-piperazinyl)phenyl)-1,1,1,3,3,3-hexafluoro-2-propanol] | 679 nM | 1370 nM | – | –
20 | O=S(=O)(c1nccs1)N1CCN(c2ccc(C(O)(C(F)(F)F)C(F)(F)F)cc2)CC1 [Example 33, 1,1,1,3,3,3-hexafluoro-2-(4-(4-(1,3-thiazol-2-ylsulfonyl)-1-piperazinyl)phenyl)-2-propanol trifluoroacetate] | 664 nM | 842 nM | – | –
21 | O=S(=O)(c1ccccn1)N1CCN(c2ccc(C(O)(C(F)(F)F)C(F)(F)F)cc2)CC1 [Example 7, 1,1,1,3,3,3-hexafluoro-2-(4-(4-(2-pyridinylsulfonyl)-1-piperazinyl)phenyl)-2-propanol] | 3780 nM | 3290 nM | – | –
22 | CC(O)(c1ccc(N2CCN(S(=O)(=O)c3cccs3)CC2Cc2cccc(F)c2)cc1)C(F)(F)F (mixture of isomers) [Example 39, 1,1,1-trifluoro-2-(4-(2-(3-fluorobenzyl)-4-(2-thiophenylsulfonyl)-1-piperazinyl)phenyl)-2-propanol] | 802 nM | 1090 nM | – | –
23 | O=S(=O)(c1cccs1)N1CCN(c2ccc(C(O)(C(F)(F)F)C(F)(F)F)cc2)[C@@H](Cc2ccccc2)C1 [Example 64, 2-(4-((2S)-2-benzyl-4-(2-thiophenylsulfonyl)-1-piperazinyl)phenyl)-1,1,1,3,3,3-hexafluoro-2-propanol] | 308 nM | 772 nM | – | –
